Reference: ChEMBL document CHEMBL1201862, “PubChem BioAssay data set” (2004)
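Tested at 5 concentrations; 48 h exposure; 96-well plates; endpoints linearly interpolated, else capped at highest concentration. GI50 is the concentration that inhibits growth by half.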 Activity calls are given as the source filed them. No stated cut-off is given here; in the data, active = GI50 up to about 1.1 µM and inactive = higher.

Experiments:
Assay in all cases: growth of human tumour cells (NCI), 48 h
K562 = system: K562
T47D = system: T47D
UO-31 = system: UO-31
CAKI-1 = system: CAKI-1
HL-60 = system: HL-60
786-0 = system: 786-0
HCT-116 = system: HCT-116
HCT-15 = system: HCT-15
MDA-N = system: MDA-N
MDA-MB-435 = system: MDA-MB-435
SF-268 = system: SF-268
OVCAR-8 = system: OVCAR-8
SW-620 = system: SW-620
KM12 = system: KM12
SK-MEL-2 = system: SK-MEL-2
SR = system: SR
SK-MEL-28 = system: SK-MEL-28
UACC-62 = system: UACC-62
RPMI-8226 = system: RPMI-8226
A549 = system: A549
SK-OV-3 = system: SK-OV-3
A498 = system: A498
SNB-19 = system: SNB-19
BT-549 = system: BT-549
Hs-578T = system: Hs-578T
NCI-H23 = system: NCI-H23
OVCAR-3 = system: OVCAR-3
M14 = system: M14
SF-295 = system: SF-295
MDA-MB-231 = system: MDA-MB-231
MOLT-4 = system: MOLT-4
MCF7 = system: MCF7
HT-29 = system: HT-29
SN12C = system: SN12C
Malme-3M = system: Malme-3M
SNB-75 = system: SNB-75
COLO 205 = system: COLO 205
SK-MEL-5 = system: SK-MEL-5
U-251 = system: U-251
RXF 393 = system: RXF 393
HOP-92 = system: HOP-92
CCRF-CEM = system: CCRF-CEM
NCI/ADR-RES = system: NCI/ADR-RES
UACC-257 = system: UACC-257
OVCAR-4 = system: OVCAR-4
IGROV-1 = system: IGROV-1
TK-10 = system: TK-10
SF-539 = system: SF-539
PC-3 = system: PC-3
NCI-H460 = system: NCI-H460
LOX IMVI = system: LOX IMVI
DU-145 = system: DU-145
HOP-62 = system: HOP-62
NCI-H226 = system: NCI-H226
EKVX = system: EKVX
ACHN = system: ACHN
OVCAR-5 = system: OVCAR-5
NCI-H522 = system: NCI-H522

Measured: GI50

CC(C)CCCC(C)[C@H]1CC[C@H]2N/C(=N/c3ccccc3)CCC[C@]12C (stereo partly specified)
1070 nM: HCT-15
inactive: K562 1330 nM | T47D 3090 nM | UO-31 1620 nM | CAKI-1 2290 nM | HL-60 1850 nM | 786-0 1770 nM | HCT-116 2280 nM | MDA-N 3030 nM | MDA-MB-435 1880 nM | SF-268 2060 nM | SW-620 3210 nM | KM12 2430 nM | SK-MEL-2 1670 nM | SR 1770 nM | SK-MEL-28 2090 nM | UACC-62 1850 nM | RPMI-8226 1650 nM | A549 2810 nM | SK-OV-3 2030 nM | A498 3350 nM | SNB-19 2890 nM | BT-549 2900 nM | Hs-578T 2260 nM | NCI-H23 1720 nM | OVCAR-3 2290 nM | M14 1870 nM | SF-295 1600 nM | MDA-MB-231 1140 nM | MOLT-4 1640 nM | MCF7 1790 nM | SN12C 1770 nM | Malme-3M 2670 nM | SNB-75 1880 nM | COLO 205 1300 nM | SK-MEL-5 1270 nM | U-251 1820 nM | RXF 393 1420 nM | HOP-92 2970 nM | CCRF-CEM 2510 nM | NCI/ADR-RES 1680 nM | UACC-257 2120 nM | OVCAR-4 3560 nM | IGROV-1 1610 nM | TK-10 2620 nM | SF-539 1610 nM | PC-3 2970 nM | NCI-H460 1930 nM | DU-145 6520 nM | HOP-62 2520 nM | NCI-H226 1860 nM
active: OVCAR-8 893 nM | HT-29 501 nM | LOX IMVI 863 nM

CSc1ncnc2c1ncn2C1OC(CO)C(O)OC1O (stereo unspecified)
active: T47D 612 nM | 786-0 785 nM | HCT-116 400 nM | EKVX 624 nM | KM12 789 nM | SR 619 nM | RPMI-8226 1060 nM | A549 662 nM | A498 1110 nM | ACHN 643 nM | NCI-H23 721 nM | OVCAR-3 348 nM | MDA-MB-231 396 nM | MOLT-4 281 nM | MCF7 262 nM | HT-29 449 nM | SN12C 1060 nM | HOP-92 822 nM | CCRF-CEM 57.9 nM | UACC-257 902 nM | IGROV-1 897 nM | TK-10 219 nM | NCI-H460 424 nM | LOX IMVI 361 nM | DU-145 697 nM
506 nM: HCT-15
inactive: K562 1160 nM | UO-31 1790 nM | CAKI-1 2580 nM | HL-60 1970 nM | MDA-N 2240 nM | MDA-MB-435 1700 nM | SF-268 7690 nM | OVCAR-8 2120 nM | SW-620 1510 nM | SK-MEL-2 2760 nM | SK-MEL-28 13700 nM | UACC-62 2960 nM | SK-OV-3 20000 nM | SNB-19 10700 nM | BT-549 1830 nM | OVCAR-5 2010 nM | Hs-578T 20900 nM | M14 1140 nM | SF-295 13600 nM | Malme-3M 14000 nM | SNB-75 10900 nM | COLO 205 1800 nM | NCI-H522 3340 nM | SK-MEL-5 3730 nM | U-251 9350 nM | RXF 393 11700 nM | NCI/ADR-RES 2560 nM | OVCAR-4 10700 nM | SF-539 1730 nM | PC-3 2260 nM | HOP-62 3700 nM
